Results reported in patent US12668600B2 (Kumquat Biosciences Inc., priority 2023, dated 2026).
pIC50: −log10 of the molar value.

Tests used:
Assay type in all cases: biochemical
KRAS WT = target: T1, KRAS WT (Homo sapiens, UniProt P01116); assay: HTRF KRAS-SOS1 interaction assay, wildtype KRAS; conditions: binned ≤2 μM / >2 μM, read-out: Inhibition of KRAS WT (IC50)
T1 construct: made in house; host or cells: E. coli, e.g. BL21 (DE3)
Excerpt: (§1) This assay can be also used to assess a selective inhibition or reduction of signaling output of a mutant Ras protein relative to a wildtype, or relative to a different mutant Ras protein. For example, the equilibrium interaction of wildtype KRAS or K-Ras mutant (e.g., wildtype or a mutant thereof) with SOS1 (e.g., hSOS1) can be assessed as a proxy or an indication for the ability of a subject compound to bind and inhibit Ras protein. The HTRF assay detects from (i) a fluorescence resonance energy transfer (FRET) donor (e.g., antiGST-Europium) that is bound to GST-tagged K-Ras mutant to (ii) a FRET acceptor (e.g., anti-6His-XL665) bound to a His-tagged hSOS1.
(§2) The assay buffer can contain ˜5 mM HEPES pH 7.4, ˜150 mM NaCl, ˜1 mM DTT, 0.05% BSA and 0.0025% (v/v) Igepal. A Ras working solution is prepared in an assay buffer containing typically a suitable amount of the protein construct (e.g., GST-tagged K-Ras mutant) and the FRET donor (e.g., antiGST-Eu (K) from Cisbio, France). A SOS1 working solution is prepared in an assay buffer containing suitable amount of the protein construct (e.g., His-hSOS1) and the FRET acceptor (e.g., anti-6His-XL665 from Cisbio, France). A suitable amount of the protein construct will depend on the range of activity or range of IC50 values being detected or under investigation. For detecting an IC50 within a range of 500 nM, the protein constructs of the same range of molarity can be utilized.
(§3) A fixed volume of DMSO with or without test compound is transferred into a 384-well plate. Ras working solution is added to all wells of the test plate. SOS1 working solution is added to all wells except for those that are subsequently filled with inhibitor control solution. Upon incubation for about 10 minutes or longer, the fluorescence is measured with a M1000Pro plate reader (Tecan) using HTRF detection (excitation 337 nm, emission 1:620 nm, emission 2:665 nm). Compounds are tested in duplicate at different concentrations (for example, 10 μM, 2.5 μM, 0.63 μM, 0.16 μM, 0.04 μM, 0.01 μM test compound). The ratiometric data (i.e., emission 2 divided by emission 1) is used to calculate IC50 values against Ras using GraphPad Prism (GraphPad software). Signaling output measured in terms of IC50 values can be obtained and a ratio of IC50 against one mutant relative to another mutant can be calculated.

KRAS G12D = target: T2, KRAS G12D (Homo sapiens, UniProt P01116, G12D); assay: HTRF KRAS-SOS1 interaction assay, KRAS G12D; conditions: binned ≤2 μM / >2 μM, read-out: Inhibition of KRAS G12D (IC50)
T2 construct: made in house; host or cells: E. coli, e.g. BL21 (DE3)
Excerpt: as §1, §2, §3

KRAS G12V = target: T3, KRAS G12V (Homo sapiens, UniProt P01116, G12V); assay: HTRF KRAS-SOS1 interaction assay, KRAS G12V; conditions: binned ≤2 μM / >2 μM, read-out: Inhibition of KRAS G12V (IC50)
T3 construct: made in house; host or cells: E. coli, e.g. BL21 (DE3)
Excerpt: as §1, §2, §3

T3 sequence (P01116 1-188 isoform P01116-2 G12V): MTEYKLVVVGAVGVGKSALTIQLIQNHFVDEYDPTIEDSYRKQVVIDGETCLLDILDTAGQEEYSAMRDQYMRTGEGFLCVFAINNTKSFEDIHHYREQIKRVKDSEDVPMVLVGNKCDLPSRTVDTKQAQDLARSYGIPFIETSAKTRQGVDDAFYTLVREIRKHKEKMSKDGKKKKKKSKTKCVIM
T1 sequence (P01116 1-188 isoform P01116-2): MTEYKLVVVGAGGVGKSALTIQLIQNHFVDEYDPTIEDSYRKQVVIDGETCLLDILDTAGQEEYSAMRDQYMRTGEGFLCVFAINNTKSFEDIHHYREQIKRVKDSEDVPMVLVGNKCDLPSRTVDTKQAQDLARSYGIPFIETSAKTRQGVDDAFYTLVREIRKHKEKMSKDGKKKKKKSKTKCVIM
T2 sequence (P01116 1-188 isoform P01116-2 G12D): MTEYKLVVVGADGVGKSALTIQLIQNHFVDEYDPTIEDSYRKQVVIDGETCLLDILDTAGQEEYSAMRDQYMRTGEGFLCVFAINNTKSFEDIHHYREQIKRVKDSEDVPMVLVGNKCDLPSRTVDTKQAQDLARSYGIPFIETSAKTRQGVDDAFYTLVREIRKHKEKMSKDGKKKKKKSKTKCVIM

## N#Cc1c(N)sc2c(F)ccc(-c3c(C(F)(F)F)c4c5c(nc(OC[C@@]67CCCN6[C@H](COc6cnc(C(F)(F)F)cn6)CC7)nc5c3F)N([C@@H](c3cccnc3N)C(F)F)CCO4)c12 (single isomer, unassigned) [Compound 887]
KRAS WT
  pIC50: ≥ 5.70

## CCO/N=C(\C)CCC[C@H](c1cccnc1N)N1CCOc2c(C(F)(F)F)c(-c3ccc(F)c4sc(N)c(C#N)c34)c(F)c3nc(OC[C@@]45CCCN4C[C@H](F)C5)nc1c23 (single isomer, unassigned) [Compound 720]
KRAS G12D
  pIC50: ≥ 5.70
KRAS WT
  pIC50: ≥ 5.70
KRAS G12V
  pIC50: ≥ 5.70

## N#Cc1c(N)sc2c(F)ccc(-c3c(C(F)(F)F)c4c5c(nc(OC[C@@]67CCCN6C[C@H](F)C7)nc5c3F)N([C@H](CC3CCOC3)c3cccnc3N)CCO4)c12 (single isomer, unassigned) [Compound 911]
KRAS G12D
  pIC50: ≥ 5.70
KRAS WT
  pIC50: ≥ 5.70
KRAS G12V
  pIC50: ≥ 5.70

## C=CC[C@H](c1cccnc1N)N1CCOc2c(C(F)(F)F)c(-c3ccc(F)c4sc(N)c(C#N)c34)c(F)c3nc(OC[C@@]45CCCN4C[C@H](F)C5)nc1c23 (single isomer, unassigned) [Compound 734]
KRAS G12D
  pIC50: ≥ 5.70
KRAS WT
  pIC50: < 5.70
KRAS G12V
  pIC50: < 5.70

## CCO/N=C(\C)CCC[C@H](c1cccnc1N)N1CCOc2c(C(F)(F)F)c(-c3ccc(F)c4sc(N)c(C#N)c34)c(F)c3nc(OC[C@@]45CCCN4C[C@H](F)C5)nc1c23 (single isomer, unassigned) [Compound 859]
KRAS G12D
  pIC50: < 5.70
KRAS WT
  pIC50: < 5.70
KRAS G12V
  pIC50: < 5.70

## N#Cc1c(N)sc2c(F)ccc(-c3c(C(F)(F)F)c4c5c(nc(OC[C@@]67CCCN6C[C@H](F)C7)nc5c3F)N([C@H](CCC3CCC3)c3cccnc3N)CCO4)c12 (single isomer, unassigned) [Compound 745]
KRAS G12D
  pIC50: ≥ 5.70
KRAS WT
  pIC50: ≥ 5.70

## CC(c1cccnc1N)N1c2nc(OC[C@@]34CCCN3C[C@H](F)C4)nc3c(F)c(-c4ccc(F)c5sc(N)c(C#N)c45)c(Cl)c(c23)OC[C@@H]1CC#N (mixture of isomers) [Compound 716, 2-amino-4-((5S)-4-(1-(2-aminopyridin-3-yl)ethyl)-8-chloro-5-(cyanomethyl)-10-fluoro-2-(((2R,7aS)-2-fluorotetrahydro-1H-pyrrolizin-7a(5H)-yl)methoxy)-5,6-dihydro-4H-[1,4]oxazepino[5,6,7-de]quinazolin-9-yl)-7-fluorobenzo[b]thiophene-3-carbonitrile]
KRAS G12D
  pIC50: ≥ 5.70

## CN(C)CC[C@H](c1cccnc1N)N1CCOc2c(C(F)(F)F)c(-c3ccc(F)c4sc(N)c(C#N)c34)c(F)c3nc(OC[C@@]45CCCN4C[C@H](F)C5)nc1c23 (single isomer, unassigned) [Compound 758]
KRAS G12D
  pIC50: ≥ 5.70

## CO/N=C1\CN2CCC[C@@]2(COc2nc3c4c(c(Cl)c(-c5ccc(F)c6sc(N)c(C#N)c56)c(F)c4n2)OCCN3[C@H](C)c2cccnc2N)C1 (single isomer, unassigned) [Compound 898]
KRAS G12D
  pIC50: ≥ 5.70

## N#Cc1c(N)sc2c(F)ccc(-c3c(Cl)c4c5c(nc(OC[C@@]67CCCN6C[C@H](F)C7)nc5c3F)N(C(c3cccnc3N)C(F)F)CCO4)c12 (single isomer, unassigned) [Compound 786]
KRAS G12D
  pIC50: ≥ 5.70

## CC(c1cncnc1N)N1CCOc2c(Cl)c(-c3ccc(F)c4sc(N)c(C#N)c34)c(F)c3nc(OC[C@@]45CCCN4C[C@H](F)C5)nc1c23 (single isomer, unassigned) [Compound 699]
KRAS G12D
  pIC50: ≥ 5.70

## N#Cc1c(N)sc2c(F)ccc(-c3c(C(F)(F)F)c4c5c(nc(OC[C@@]67CCCN6C[C@H](F)C7)nc5c3F)N([C@H](CC3CCOC3)c3cccnc3N)CCO4)c12 (single isomer, unassigned) [Compound 772]
KRAS G12D
  pIC50: ≥ 5.70
KRAS WT
  pIC50: ≥ 5.70
KRAS G12V
  pIC50: ≥ 5.70

## C[C@H](c1cccnc1N)N1CCOc2c(Cl)c(-c3cccc4sc(N)c(C#N)c34)c(F)c3nc(OC[C@@]45CCCN4C[C@H](F)C5)nc1c23 (single isomer, unassigned) [Compound 823]
KRAS G12D
  pIC50: ≥ 5.70

## N#Cc1c(N)sc2c(F)ccc(-c3c(C(F)(F)F)c4c5c(nc(OC[C@@]67CCCN6C[C@H](F)C7)nc5c3F)N([C@H](CCC3CCOCC3)c3cccnc3N)CCO4)c12 (single isomer, unassigned) [Compound 696]
KRAS G12D
  pIC50: ≥ 5.70

## N#Cc1c(N)sc2c(F)ccc(-c3c(Cl)c4c5c(nc(OC[C@@]67CCCN6C[C@H](F)C7)nc5c3F)N(C(CC(F)F)c3cccnc3N)CCO4)c12 (mixture of isomers) [Compound 776, 2-amino-4-(4-(1-(2-aminopyridin-3-yl)-3,3-difluoropropyl)-8-chloro-10-fluoro-2-(((2R,7aS)-2-fluorotetrahydro-1H-pyrrolizin-7a(5H)-yl)methoxy)-5,6-dihydro-4H-[1,4]oxazepino[5,6,7-de]quinazolin-9-yl)-7-fluorobenzo[b]thiophene-3-carbonitrile]
KRAS G12D
  pIC50: ≥ 5.70

## N#Cc1c(N)sc2c(F)ccc(-c3c(C(F)(F)F)c4c5c(nc(OC[C@@]67CCCN6C[C@H](F)C7)nc5c3F)N([C@H](CCN3CCOCC3)c3cccnc3N)CCO4)c12 (single isomer, unassigned) [Compound 735]
KRAS G12D
  pIC50: ≥ 5.70

## C[C@@H]1CN(CC2(COc3nc4c5c(c(C(F)(F)F)c(-c6ccc(F)c7sc(N)c(C#N)c67)c(F)c5n3)OCCN4[C@H](C)c3cccnc3N)CC2)C[C@H](C)O1 [Compound 886, 2-amino-4-(4-((R)-1-(2-aminopyridin-3-yl)ethyl)-2-((1-(((2S,6R)-2,6-dimethylmorpholino)methyl)cyclopropyl)methoxy)-10-fluoro-8-(trifluoromethyl)-5,6-dihydro-4H-[1,4]oxazepino[5,6,7-de]quinazolin-9-yl)-7-fluorobenzo[b]thiophene-3-carbonitrile]
KRAS G12D
  pIC50: ≥ 5.70

## N#Cc1c(N)sc2c(F)ccc(-c3c(C(F)(F)F)c4c5c(nc(OC[C@@]67CCCN6C[C@H](F)C7)nc5c3F)N([C@@H](c3cccnc3N)C(F)F)CCO4)c12 (single isomer, unassigned) [Compound 804]
KRAS G12D
  pIC50: ≥ 5.70

## CP(C)(=O)CC[C@H](c1cccnc1N)N1CCOc2c(C(F)(F)F)c(-c3ccc(F)c4sc(N)c(C#N)c34)c(F)c3nc(OC[C@@]45CCCN4C[C@H](F)C5)nc1c23 (single isomer, unassigned) [Compound 891]
KRAS G12D
  pIC50: ≥ 5.70

## N#Cc1c(N)sc2c(F)ccc(-c3c(Cl)c4c5c(nc(OC[C@@]67CCCN6C[C@H](F)C7)nc5c3F)N(C(C=C(F)F)c3cccnc3N)CCO4)c12 (single isomer, unassigned) [Compound 712]
KRAS G12D
  pIC50: ≥ 5.70

## N#Cc1c(N)sc2c(F)ccc(-c3c(C(F)(F)F)c4c5c(nc(OC[C@@]67CCCN6C[C@H](F)C7)nc5c3F)N([C@H](CCC3COCCO3)c3cccnc3N)CCO4)c12 (single isomer, unassigned) [Compound 701]
KRAS G12D
  pIC50: ≥ 5.70

## C#C[C@H]1COc2c(Cl)c(-c3ccc(F)c4sc(N)c(C#N)c34)c(F)c3nc(OC[C@@]45CCCN4C[C@H](F)C5)nc(c23)N1C(C)c1cccnc1N (single isomer, unassigned) [Compound 729]
KRAS G12D
  pIC50: ≥ 5.70

## CS(=O)(=O)CCC[C@H](c1cccnc1N)N1CCOc2c(C(F)(F)F)c(-c3ccc(F)c4sc(N)c(C#N)c34)c(F)c3nc(OC[C@@]45CCCN4C[C@H](F)C5)nc1c23 (single isomer, unassigned) [Compound 805]
KRAS G12D
  pIC50: ≥ 5.70

## C[C@H](c1cccnc1N)N1CCOc2c(Cl)c(-c3ccc(F)c4sc(N)c(C#N)c34)c(F)c3nc(OCC4(CN(C)C)CC4)nc1c23 (single isomer, unassigned) [Compound 771]
KRAS G12D
  pIC50: ≥ 5.70

## C[C@H](c1ccc(F)nc1N)N1CCOc2c(C(F)(F)F)c(-c3ccc(F)c4sc(N)c(C#N)c34)c(F)c3nc(OC[C@@]45CCCN4C[C@H](F)C5)nc1c23 (single isomer, unassigned) [Compound 726]
KRAS G12D
  pIC50: ≥ 5.70

## C[C@H](c1cccnc1N)N1CCOc2c(C(F)(F)F)c(-c3ccc(F)c4sc(N)c(C#N)c34)c(F)c3nc(OC[C@@]45CCCN4C[C@H](F)C5)nc1c23 (single isomer, unassigned) [Compound 757]
KRAS G12D
  pIC50: ≥ 5.70
KRAS WT
  pIC50: ≥ 5.70
KRAS G12V
  pIC50: ≥ 5.70
